Columns and labels:
human mGluR5 = human mGluR5 (Homo sapiens, UniProt P41594); assay: Cell-based functional Ca2+ mobilization assay, potentiation of glutamate EC20 response (H10H cell-line); settings: H10H cell-line expressing recombinant human mGluR5; for Emax / Emax (%): in presence of glutamate EC20, normalized to maximal glutamate response; for EC50 / pEC50: potentiation in presence of glutamate EC20
Method: Human embryonic kidney (HEK) cells transfected with rat mGluR5 were plated in clear bottom assay plates for assay in a Functional Drug Screening System (FDSS). In the alternative assay, HEK cells transfected with human mGluR5 were plated for assay in the FDSS. In some cases the HEK cells transfected with human mGluR5 are the H10H cell line. Alternatively, the HEK cells transfected with human mGluR5 are the H12H cell line. […] The cells were loaded with a Ca^2+-sensitive fluorescent dye (e.g., Fluo-4), and the plates were washed and placed in the FDSS instrument. After establishment of a fluorescence baseline for about three seconds, the compounds of the present invention were added to the cells, and the response in cells was measured. Five minutes later, an mGluR5 agonist (e.g., glutamate, 3,5-dihydroxyphenylglycine, or quisqualate) was added to the cells, and the response of the cells was measured. Potentiation of the agonist response of mGluR5 by the compounds in the present invention was observed as an increase in response to non-maximal concentrations of agonist (here, glutamate) in the presence of compound compared to the response to agonist in the absence of compound.
The above described assay can be operated in two modes. In the first mode, a range of concentrations of the present compounds were added to cells, followed by a single fixed concentration of agonist. If a compound acted as a potentiator, an EC50 value for potentiation and a maximum extent of potentiation by the compound at this concentration of agonist was determined by non-linear curve fitting. In the second mode, several fixed concentrations of the present compounds were added to various wells on a plate, followed by a range of concentrations of agonist for each concentration of present compound; the EC50 values for the agonist at each concentration of compound were determined by non-linear curve fitting. A decrease in the EC50 value of the agonist with increasing concentrations of the present compounds (a leftward shift of the agonist concentration-response curve) is an indication of the degree of mGluR5 potentiation at a given concentration of the present compound. An increase in the EC50 value of the agonist with increasing concentrations of the present compounds (a rightward shift of the agonist concentration-response curve) is an indication of the degree of mGluR5 antagonism at a given concentration of the present compound. The second mode also indicates whether the present compounds also affect the maximum response to mGluR5 to agonists.
Human mGluR5a cDNA in pCMV6-XL6 mammalian expression plasmid was purchased from OriGene Technologies, Inc. (catalogue number SC326357) and subcloned into pcDNA3.1(−). Human embryonic kidney (HEK) 293A cells were then transfected with human mGluR5a pcDNA3.1(−) using LipofectAmine 2000 (Invitrogen) and monoclones were selected and tested for functional response using a Ca^2+ mobilization assay. Monoclones were named for the species (“H” for human) plus the location on the plate (e.g. “10H”).
HEK cells transfected with the human mGluR5a receptor were plated at 15,000 cells/well in clear-bottomed poly-D-lysine-coated assay plates (BD Falcon) in glutamate-glutamine-free growth medium and incubated overnight at 37° C. and 5% CO2. The cell-line used to obtain the data reported herein was the H10H cell-line expressing the human mGluR5 receptor. Although the H10H cell-line was used to obtain the data shown herein, the H12H cell-line expressing the human mGluR5 receptor can also be used in these assays. The following day, the growth medium was removed and the cells were washed with assay buffer containing 1× Hank's balanced salt solution (Invitrogen, Carlsbad, Calif.), 20 mM HEPES, 2.5 mM probenecid, pH 7.4 and left with 20 μL of this reagent. Following this step, the cells were loaded with calcium indicator dye, fluo-4 AM, to a final concentration of 2 μM and incubated for 40-45 min at 37° C. […]

human mGluR5, sequence (P41594 21-1180 isoform P41594-2 limits assumed): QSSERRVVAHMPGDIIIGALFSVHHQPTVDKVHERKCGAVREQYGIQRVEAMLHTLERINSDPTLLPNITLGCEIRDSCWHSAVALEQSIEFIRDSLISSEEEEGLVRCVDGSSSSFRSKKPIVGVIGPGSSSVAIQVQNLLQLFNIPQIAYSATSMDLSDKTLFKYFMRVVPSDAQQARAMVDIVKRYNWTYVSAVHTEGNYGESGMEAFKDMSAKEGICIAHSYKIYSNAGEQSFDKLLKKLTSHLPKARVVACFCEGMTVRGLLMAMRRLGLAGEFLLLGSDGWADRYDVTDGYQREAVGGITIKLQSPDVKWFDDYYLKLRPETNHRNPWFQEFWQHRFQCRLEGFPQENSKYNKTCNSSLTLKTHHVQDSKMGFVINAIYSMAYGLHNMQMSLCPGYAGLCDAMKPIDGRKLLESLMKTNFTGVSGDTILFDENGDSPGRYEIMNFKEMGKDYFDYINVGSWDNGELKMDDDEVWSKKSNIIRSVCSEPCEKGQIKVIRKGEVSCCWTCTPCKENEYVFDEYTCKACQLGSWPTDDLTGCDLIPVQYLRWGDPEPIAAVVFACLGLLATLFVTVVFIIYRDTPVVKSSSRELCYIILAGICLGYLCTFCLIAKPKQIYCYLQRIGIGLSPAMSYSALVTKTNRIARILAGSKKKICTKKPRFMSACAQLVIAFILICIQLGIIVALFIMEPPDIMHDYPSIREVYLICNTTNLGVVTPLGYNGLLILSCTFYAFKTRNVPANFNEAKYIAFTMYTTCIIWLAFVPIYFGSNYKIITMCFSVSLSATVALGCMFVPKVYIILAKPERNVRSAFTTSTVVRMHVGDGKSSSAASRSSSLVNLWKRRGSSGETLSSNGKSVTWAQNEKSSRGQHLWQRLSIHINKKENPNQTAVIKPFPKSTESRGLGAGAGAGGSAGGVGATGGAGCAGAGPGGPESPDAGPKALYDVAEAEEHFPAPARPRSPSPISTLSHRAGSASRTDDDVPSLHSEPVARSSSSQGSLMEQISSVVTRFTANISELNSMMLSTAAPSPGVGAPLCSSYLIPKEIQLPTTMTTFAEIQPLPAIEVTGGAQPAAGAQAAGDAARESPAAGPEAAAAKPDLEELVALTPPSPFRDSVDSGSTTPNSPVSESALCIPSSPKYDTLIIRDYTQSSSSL

Emax (human mGluR5) [%]	EC50 (human mGluR5) [µM]	melting point [°C]	Emax (%) (human mGluR5)	pEC50 (human mGluR5)	Structure (SMILES)
10	0.891	71.8			O=C(N1CCc2nc(COc3ccccc3)oc2C1)C(F)(F)F [Example B34, 2-(phenoxymethyl)-5-(trifluoroacetyl)-4,5,6,7-tetrahydro[1,3]oxazolo[5,4-c]pyridine]
64.5	0.295	130			N#Cc1cccc(C(=O)N2CCc3nc(COc4ccccc4)oc3C2)c1 [Example B43]
70	0.933	> 300			O=C(c1ccc(OC(F)(F)F)cc1)N1CCc2nc(COc3ccccc3)oc2C1 [Example B75]
21	0.331	158.2			Cc1oncc1C(=O)N1CCc2nc(COc3ccccc3)oc2C1 [Example B71]
59	1.82	107.6			O=C(c1ccc2ccccc2n1)N1CCc2nc(COc3ccccc3)oc2C1 [Example B79]
58	3.09	132.2			N#Cc1ccc(C(=O)N2CCc3nc(COc4ccccc4)oc3C2)cc1 [Example B49]
67	3.31	109.8			O=C(c1ncc(F)cc1F)N1CCc2nc(COc3cccc(F)c3)oc2C1 [Example B101]
64	0.871	124.1 to 125.3			O=C(c1ccccc1F)N1CCc2nc(COc3ccccc3)sc2C1 [Example B5, 5-[(2-fluorophenyl)carbonyl]-2-(phenoxymethyl)-4,5,6,7-tetrahydro[1,3]thiazolo[5,4-c]pyridine]
56	> 10	137.2			Cc1ccc(OCc2nc3c(o2)CN(C(=O)c2ccc(F)cc2)CC3)cc1 [Example B70]
53	0.257	78.5			Cn1cccc1C(=O)N1CCc2nc(COc3ccccc3)oc2C1 [Example B84]
68	1.12	128.7			O=C(c1ccc(F)nc1)N1CCc2nc(COc3ccccc3)oc2C1 [Example B94]
49	3.02	> 300			O=C(c1cncc(F)c1)N1CCc2nc(COc3cccc(F)c3)oc2C1 [Example B67]
80	0.251	204.7			O=C(c1ccccc1)N1CCc2nc(COc3cccc(F)c3)oc2C1 [Example B26]
81	1.05	147.7			N#Cc1cc(C(=O)N2CCc3nc(COc4cccc(F)c4)oc3C2)ccc1F [Example B97]
49	3.72	98.3			O=C(c1cncc(F)c1)N1CCc2nc(COc3ccccc3)oc2C1 [Example B65]
67	0.501	102.9			CN(C)c1cccc(C(=O)N2CCc3nc(COc4ccccc4)oc3C2)c1 [Example B83]
57	0.219	> 300			N#Cc1cccc(C(=O)N2CCc3nc(COc4cccc(F)c4)oc3C2)c1 [Example B85]
73	0.741	128.2			N#Cc1cc(C(=O)N2CCc3nc(COc4ccccc4)oc3C2)ccc1F [Example B98]
40	> 10	78.9			O=C(c1ccc(F)cc1)N1CCc2nc(COc3cccc(C(F)(F)F)c3)oc2C1 [Example B127]
53	1.78	92.5			O=C(c1ccno1)N1CCc2nc(COc3ccccc3)oc2C1 [Example B88]
64	> 10	130.8			O=C(c1cnn2ccccc12)N1CCc2nc(COc3ccccc3)oc2C1 [Example B95]

Emax (human mGluR5) [%]	EC50 (human mGluR5) [µM]	melting point [°C]	Emax (%) (human mGluR5)	pEC50 (human mGluR5)	Structure (SMILES)
67	2.95	113.1			O=C(c1ccc(F)cn1)N1CCc2nc(COc3ccccc3)oc2C1 [Example B40]
53	> 10	104.4			Cc1nc(C(=O)N2CCc3nc(COc4ccccc4)oc3C2)c(C)o1 [Example B86]
71	0.331	90.1			O=C(c1ccc(F)cc1F)N1CCc2nc(COc3cccc(F)c3)oc2C1 [Example B78]
44	> 10	> 300			O=C(c1ccnnc1)N1CCc2nc(COc3ccccc3)oc2C1 [Example B150]
75	0.708	121.3			O=C(c1ccc2c(c1)OCO2)N1CCc2nc(COc3ccccc3)oc2C1 [Example B76]
76	0.186	74.7			O=C(c1cccc(F)c1)N1CCc2nc(COc3cccc(F)c3)oc2C1 [Example B27]
57	0.776	55.5			O=C(c1cccc2c1OCCO2)N1CCc2nc(COc3ccccc3)oc2C1 [Example B99]
80	0.112	66			O=C(c1cccc(F)c1)N1CCc2nc(COc3ccccc3)oc2C1 [Example B7, 5-[(3-fluorophenyl)carbonyl]-2-(phenoxymethyl)-4,5,6,7-tetrahydro[1,3]oxazolo[5,4-c]pyridine]
57	> 10	137.4			O=C(c1ccc(F)cc1)N1CCc2nc(COc3ccc(O)cc3)oc2C1 [Example B35, 4-({5-[(4-fluorophenyl)carbonyl]-4,5,6,7-tetrahydro[1,3]oxazolo[5,4-c]pyridin-2-yl}methoxy)phenol]
66.5	1.26				N#Cc1cccc(OCc2nc3c(o2)CN(C(=O)c2ccc(F)cc2)CC3)c1 [Example B53]
27	> 30.2				O=C(c1ccc(F)cc1)N1CCc2nc(COc3ccc(Br)cc3)oc2C1 [Example B129]
			58	5.66	N#Cc1ccc(C(=O)N2CCc3nc(COc4ccccc4)oc3C2)cc1F [Example B90]
			74	6.43	O=C(c1cccc(F)c1F)N1CCc2nc(COc3ccccc3)oc2C1 [Example B15]
			57	6.43	N#Cc1cc(F)cc(C(=O)N2CCc3nc(COc4ccccc4)oc3C2)c1 [Example B50]
22	> 30.2				O=C(c1ccc(F)cc1)N1CCc2nc(COc3ccccc3C(F)(F)F)oc2C1 [Example B130]
68				5.85	O=C(c1n[nH]c2ccncc12)N1CCc2nc(COc3ccccc3)oc2C1 [Example B143]
63	1.2				Cc1cccc(OCc2nc3c(o2)CN(C(=O)c2ccc(F)cc2)CC3)c1 [Example B66]
26	> 30.2				O=C(c1c[nH]cn1)N1CCc2nc(COc3ccccc3)oc2C1 [Example B154]
			37	<5	O=C(c1cnc(C(F)(F)F)nc1)N1CCc2nc(COc3ccccc3)oc2C1 [Example B118]
39.5	2				O=C(c1ncco1)N1CCc2nc(COc3ccccc3)oc2C1 [Example B60]
50	> 10				O=C(c1c[nH]c2cccnc12)N1CCc2nc(COc3ccccc3)oc2C1 [Example B145]

Reference: patent US9090632B2, “Bicyclic oxazole and thiazole compounds and their use as allosteric modulators of mGluR5 receptors” (Vanderbilt University, priority 2010, dated 2015)
